The results in this text go back to patent US20060223837A1 (priority 2005, published 2006).

One may read the Ki as the dissociation constant of the complex between target and ligand, obtained from inhibition or displacement. Lower therefore signals tighter binding. Usually EC50 stands for the concentration needed to bring the measured effect to its halfway point. One may read the IC50 as the midpoint of a concentration-inhibition curve.

The target in assay [1] is T1, human VR1 (Homo sapiens, UniProt Q8NER1).
T1 construct: expressed in transfected cells; host or cells: HEK293
In words: Human VR1 [3H]RTX binding assay. The following applies: for h Binding % I (1 μM) / inhibition at 1 µM: inhibition of [3H]RTX binding at 1 μM; for Ki: [3H]RTX binding, HEK293 membranes; for inhibition at 1 µM: read-out: h Binding % I (1 μM). A digest of the protocol: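 Inhibition of [3H]resiniferatoxin binding measured on HEK293-hVR1 membranes over 60 min at 37 C, pH 7.4 HEPES buffer containing BSA. Pellet radioactivity counted; 200 nM cold RTX gave nonspecific binding. % inhibition computed and Ki derived from duplicate measurements.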

Assay [2] has as its target T1, human VR1. Put plainly: Human VR1 functional assay (FLIPR intracellular Ca2+). In kind it is cell-based. The following applies: for h % I (5 μM) / h % I (10 μM) / inhibition at 1 µM / inhibition at 5 µM: inhibition of capsaicin response; for Emax at 12 µM / % Response Relative to EC80 of Capsaicin (12 μM) / Emax at 6 µM: agonist response; for Emax at 12 µM: read-out: % Response Relative to EC80 of Capsaicin (12 μM); for Emax at 6 µM: read-out: % Response Relative to EC80 of Capsaicin (6 μM); for EC50: agonist-induced Ca2+ increase, read-out: h EC50; for inhibition at 1 µM: read-out: h % I (1 μM); for IC50: antagonism of capsaicin-induced Ca2+ increase, read-out: h IC50; for inhibition at 5 µM: read-out: h % I (5 μM). A digest of the protocol:
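Read-out was Ca2+-dye fluorescence by FLIPR: compounds at varying concentrations were added to dye-loaded human VR1 HEK293 cells and monitored 5 min before capsaicin addition ([…], approx. EC80). Dose-response data, averaged over four wells, gave EC50 or IC50.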

Structures can show the parent of a compound that is named as a salt.

T1 sequence (Q8NER1 whole entry): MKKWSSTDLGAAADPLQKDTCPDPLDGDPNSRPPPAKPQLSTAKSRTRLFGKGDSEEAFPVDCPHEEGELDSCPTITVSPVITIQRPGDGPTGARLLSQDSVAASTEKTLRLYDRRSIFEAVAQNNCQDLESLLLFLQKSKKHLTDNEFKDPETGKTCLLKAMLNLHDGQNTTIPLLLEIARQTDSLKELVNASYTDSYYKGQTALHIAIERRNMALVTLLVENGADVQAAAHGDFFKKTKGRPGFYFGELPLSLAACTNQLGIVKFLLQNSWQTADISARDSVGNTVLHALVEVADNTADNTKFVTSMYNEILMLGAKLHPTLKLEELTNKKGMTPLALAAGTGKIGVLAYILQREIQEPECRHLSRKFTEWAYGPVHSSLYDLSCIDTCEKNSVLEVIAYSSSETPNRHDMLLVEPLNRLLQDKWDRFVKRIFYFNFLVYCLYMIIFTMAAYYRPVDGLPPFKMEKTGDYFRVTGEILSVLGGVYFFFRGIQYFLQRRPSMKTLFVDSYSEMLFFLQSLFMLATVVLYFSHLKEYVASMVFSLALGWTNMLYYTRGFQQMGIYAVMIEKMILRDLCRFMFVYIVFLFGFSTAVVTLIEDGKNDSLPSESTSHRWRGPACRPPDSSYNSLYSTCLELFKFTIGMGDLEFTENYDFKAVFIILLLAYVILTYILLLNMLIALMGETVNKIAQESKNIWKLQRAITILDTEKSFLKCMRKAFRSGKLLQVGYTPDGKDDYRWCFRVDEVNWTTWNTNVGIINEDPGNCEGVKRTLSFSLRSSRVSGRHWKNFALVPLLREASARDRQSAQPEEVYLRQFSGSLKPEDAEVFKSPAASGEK

Consider `CC(C)(C)c1ccc(CCC(=O)Nc2ccc(-c3cccc(O)c3)cc2)cc1` [Cpd 62], for which the “h Binding % I (1 μM)” value at human VR1 [1] stood at 23%. Besides, the “h % I (5 μM)” value at human VR1 [2] was found to be 16%.
Regarding `CC(C)(C)c1ccc(CCC(=O)Nc2ccc(-c3cccc(O)c3)cc2)s1` [Cpd 65, 3-(5-tert-butyl-thiophen-2-yl)-N-(3′-hydroxy-biphenyl-4-yl)-propionamide], at human VR1 [1], the Ki was determined as 168 nM and the inhibition at 1 µM amounted to 77%. Further, on human VR1 [2], the Emax at 12 µM came out at 87%.
For `CC(C)(C)c1ccc(CCC(=O)Nc2ccc(-c3cccc(C(N)=O)c3)cc2CO)cc1` [Cpd 69], the “h Binding % I (1 μM)” value at human VR1 [1] is 1%. Also, the “h % I (10 μM)” value at human VR1 [2] turned out to be 6%.
For `CC(=O)Nc1cccc(-c2ccc(NC(=O)CCc3ccc(C(C)(C)C)cc3)c(CO)c2)c1` [Cpd 70], the “h Binding % I (1 μM)” value at human VR1 [1] is on record as 1%. For the same compound, the “h % I (10 μM)” value on human VR1 [2] was 7%.
Consider `CC(C)(C)c1ccc(CCC(=O)Nc2ccc(-c3cccc(O)c3)cc2CO)cc1` [Cpd 71], for which the “h Binding % I (1 μM)” value at human VR1 [1] stood at 1%. In addition, the “h % I (10 μM)” value on human VR1 [2] was determined as 5%.
The corresponding values for `CC(C)(C)c1ccc(CCC(=O)Nc2ccc(-c3cccc(C(N)=O)c3)c(C(=O)O)c2)cc1` [Cpd 72] are 1% and 11%.
For the compound `CC(=O)Nc1cccc(-c2ccc(NC(=O)CCc3ccc(C(C)(C)C)cc3)cc2C(=O)O)c1` [Cpd 73], the “h Binding % I (1 μM)” value on human VR1 [1] was 1%. For the same compound, the “h % I (10 μM)” value at human VR1 [2] was 20%.
With `CC(C)(C)c1ccc(CCC(=O)Nc2ccc(-c3cccc(O)c3)c(C(=O)O)c2)cc1` [Cpd 74], on human VR1 [1], the “h Binding % I (1 μM)” value is recorded as 1%. The “h % I (10 μM)” value at human VR1 [2] was determined as 8%.
As for `CC(=O)Nc1cccc(-c2ccc(NC(=O)CCc3ccc(C(F)(F)F)cc3)cc2)c1` [Cpd 75], the “h Binding % I (1 μM)” value at human VR1 [1] is given as 6%. At human VR1 [2], the “% Response Relative to EC80 of Capsaicin (12 μM)” value (“% Response Relative to EC80” for short) is 82%.
Regarding `O=C(CCc1ccc(C(F)(F)F)cc1)Nc1ccc(-c2ccccc2O)cc1` [Cpd 76], at human VR1 [1], the Ki is 421 nM and the inhibition at 1 µM was 50%. For the same compound, the Emax at 12 µM at human VR1 [2] worked out at 77%.
For `O=C(CCc1ccc(C(F)(F)F)cc1)Nc1ccc(-c2cccc(O)c2)cc1` [Cpd 77], at human VR1 [1], the Ki was found to be 134 nM and the inhibition at 1 µM was 72%. The Emax at 12 µM at human VR1 [2] was 88%.
The corresponding values for `O=C(CCc1ccc(C(F)(F)F)cc1)Nc1ccc(-c2ccc(O)cc2)cc1` [Cpd 78] are 289 nM, 56% and 70%.
Regarding `O=C(CCc1ccc(C(F)(F)F)cc1)Nc1ccc(-c2cccc(CO)c2)cc1` [Cpd 79], the “h Binding % I (1 μM)” value on human VR1 [1] is 19%. In addition, on human VR1 [2], the “% Response Relative to EC80” value worked out at 74%.
For `O=C(CCc1ccc(C(F)(F)F)cc1)Nc1ccc(-c2ccc(CO)cc2)cc1` [Cpd 80], on human VR1 [1], the Ki was determined as 269 nM and the inhibition at 1 µM was found to be 62%. In addition, the Emax at 12 µM at human VR1 [2] was determined as 77%.
On to `CC(=O)Nc1cccc(-c2ccc(NC(=O)CCc3ccc(C(C)(C)C)cc3)c3ccccc23)c1` [Cpd 81], for which the “h Binding % I (1 μM)” value on human VR1 [1] turned out to be 6%. For the same compound, on human VR1 [2], the “h % I (5 μM)” value is 11%.
As to `CC(C)(C)c1ccc(CCC(=O)Nc2ccc(-c3cccc(O)c3)c3ccccc23)cc1` [Cpd 82], the “h Binding % I (1 μM)” value on human VR1 [1] is 28%. Also, the “h % I (5 μM)” value at human VR1 [2] is given as 39%.
On the same counts, the results for `NC(=O)c1cccc(-c2ccc(NC(=O)CCc3ccc(C(F)(F)F)cc3)c3ccccc23)c1` [Cpd 83] are 1% and 31%.
For the compound `CC(=O)Nc1cccc(-c2ccc(NC(=O)CCc3ccc(C(F)(F)F)cc3)c3ccccc23)c1` [Cpd 84], at human VR1 [1], the “h Binding % I (1 μM)” value is reported as 1%. Besides, the “h % I (5 μM)” value on human VR1 [2] was 43%.
Consider `O=C(CCc1ccc(C(F)(F)F)cc1)Nc1ccc(-c2cccc(O)c2)c2ccccc12` [Cpd 85], for which the “h Binding % I (1 μM)” value at human VR1 [1] is on record as 1%. Further, the “h % I (5 μM)” value at human VR1 [2] is 21%.
On human VR1 [1], `CC(C)(C)c1ccc(CCC(=O)Nc2ccc(-c3ccccc3O)c(CO)c2)cc1` [Cpd 92] displayed a Ki of 89 nM. Also, at human VR1 [2], the Emax at 6 µM turned out to be 133%, the 50% effective concentration (EC50) turned out to be 111 nM and the inhibition at 1 µM turned out to be 84%.
Take `CC(C)(C)c1ccc(CCC(=O)Nc2ccc(-c3cccc(O)c3)c(CO)c2)cc1` [Cpd 93]: affinity at human VR1 [1] was put at a Ki of 34 nM. Moreover, on human VR1 [2], the Emax at 6 µM was 153%, the concentration giving a half-maximal response (EC50) was found to be 65 nM and the inhibition at 1 µM is 93%.
The corresponding values for `CC(C)(C)c1ccc(CCC(=O)Nc2ccc(-c3ccc(O)cc3)c(CO)c2)cc1` [Cpd 94] are 42 nM, 115%, 94 nM and 92%.
`CC(C)(C)c1ccc(CCC(=O)Nc2ccc(-c3ccc(CO)cc3)c(CO)c2)cc1` [Cpd 96] gave a Ki on human VR1 [1] of 77 nM. Besides, at human VR1 [2], the Emax at 6 µM was found to be 65% and the inhibition at 1 µM is 91%.
As to `Cc1cc(NC(=O)CCc2ccc(C(C)(C)C)cc2)ccc1-c1ccccc1O` [Cpd 97], the Ki at human VR1 [1] was 15 nM. In addition, at human VR1 [2], the IC50 turned out to be 228 nM, the inhibition at 1 µM was 95% and the inhibition at 5 µM is 104%.
`Cc1cc(NC(=O)CCc2ccc(C(C)(C)C)cc2)ccc1-c1ccc(O)cc1` [Cpd 98] had a Ki on human VR1 [1] of 58 nM. At human VR1 [2], the IC50 was 418 nM, the inhibition at 1 µM came out at 97% and the inhibition at 5 µM was 102%.
At human VR1 [1], `Cc1cc(NC(=O)CCc2ccc(C(C)(C)C)cc2)ccc1-c1ccc(CO)cc1` [Cpd 99] returned a Ki of 29 nM. Further, on human VR1 [2], the IC50 is 209 nM, the inhibition at 1 µM is 97% and the inhibition at 5 µM was determined as 79%.
As to `CC(C)(C)c1ccc(CCC(=O)Nc2ccc(-c3ccccc3O)c(F)c2)cc1` [Cpd 100], the Ki at human VR1 [1] was 68 nM. Moreover, on human VR1 [2], the Emax at 6 µM amounted to 96% and the inhibition at 1 µM came out at 87%.
`CC(C)(C)c1ccc(CCC(=O)Nc2ccc(-c3ccc(O)cc3)c(F)c2)cc1` [Cpd 101]: at human VR1 [1], the Ki turned out to be 50 nM. On human VR1 [2], the Emax at 6 µM was 71% and the inhibition at 1 µM was determined as 95%.
The corresponding values for `CC(C)(C)c1ccc(CCC(=O)Nc2ccc(-c3ccc(CO)cc3)c(F)c2)cc1` [Cpd 102] are 39 nM, 74% and 97%.
In the case of `CC(C)(C)c1ccc(CCC(=O)Nc2ccccc2-c2ccncc2)cc1` [Cpd 103], the inhibition at 1 µM on human VR1 [1] amounted to 1%. Besides, at human VR1 [2], the IC50 was found to be 3520 nM.
Turning to `CC(C)(C)c1ccc(CCC(=O)Nc2cccc(-c3ccncc3)c2)cc1` [Cpd 104], on human VR1 [1], the inhibition constant Ki worked out at 180 nM and the inhibition at 1 µM amounted to 73%. For the same compound, on human VR1 [2], the Emax at 12 µM stood at 62%.
Turning to `CC(C)(C)c1ccc(CCC(=O)Nc2ccccc2-c2cccnc2)cc1` [Cpd 105], the inhibition at 1 µM at human VR1 [1] was 1%. The IC50 at human VR1 [2] amounted to 3950 nM.
For `CC(C)(C)c1ccc(CCC(=O)Nc2ccc(-c3cccnc3)cc2)cc1` [Cpd 107], at human VR1 [1], the Ki was 120 nM and the inhibition at 1 µM was 82%. Besides, the Emax at 12 µM on human VR1 [2] turned out to be 78%.
Take `CC(C)(C)c1ccc(CCC(=O)Nc2ccccc2-c2ccccn2)cc1` [Cpd 108]: the inhibition at 1 µM at human VR1 [1] came out at 16%. In addition, on human VR1 [2], the Emax at 12 µM came to 98% and the EC50 was determined as 935 nM.
`CC(C)(C)c1ccc(CCC(=O)Nc2cccc(-c3ccccn3)c2)cc1` [Cpd 109, 3-(4-tert-butyl-phenyl)-N-(3-pyridin-2-yl-phenyl)-propionamide hydrochloride]: the inhibition at 1 µM at human VR1 [1] is 1%. The Emax at 12 µM on human VR1 [2] was found to be 47%.
In the case of `CC(C)(C)c1ccc(CCC(=O)Nc2ccc(-c3ccncc3)cc2)cc1` [Cpd 111, 3-(4-tert-butyl-phenyl)-N-(4-pyridin-4-yl-phenyl)-propionamide], on human VR1 [1], the inhibitory constant (Ki) was 168 nM and the inhibition at 1 µM came out at 61%. For the same compound, at human VR1 [2], the Emax at 12 µM amounted to 119% and the EC50 was 18 nM.
The corresponding values for `CC(C)(C)c1ccc(CCC(=O)Nc2ccc(-c3cncnc3)cc2)cc1` [Cpd 113] are 324 nM, 67%, 101% and 773 nM.
As for `CC(C)(C)c1ccc(CCC(=O)Nc2ccc(-c3ncccc3O)cc2)cc1` [Cpd 115], the “h Binding % I (1 μM)” value on human VR1 [1] is recorded as 34%. For the same compound, on human VR1 [2], the “% Response Relative to EC80” value is 58%.
Turning to `CC(C)(C)c1ccc(CCC(=O)Nc2cccc(-c3ncccn3)c2)cc1` [Cpd 116], on human VR1 [1], the inhibition at 1 µM was determined as 1.1%. Besides, the IC50 at human VR1 [2] amounted to 377 nM.
With `CC(C)(C)c1ccc(CCC(=O)Nc2ccc(-c3cccc(O)c3)nc2)cc1` [Cpd 129], at human VR1 [1], the Ki amounted to 41 nM and the inhibition at 1 µM was 88%. Also, on human VR1 [2], the Emax at 12 µM worked out at 126% and the EC50 stood at 17 nM.
As to `CC(C)(C)c1ccc(CCC(=O)Nc2ccc(-c3ccccc3O)nc2)cc1` [Cpd 132], on human VR1 [1], the “h Binding % I (1 μM)” value is recorded as 45%. Also, the “h % I (5 μM)” value at human VR1 [2] worked out at 30%.
For `CC(C)(C)c1ccc(CCC(=O)Nc2ccc(-c3ccc(O)cc3)nc2)cc1` [Cpd 133], at human VR1 [1], the Ki is 10.9 nM and the inhibition at 1 µM is 101%. Besides, the Emax at 12 µM at human VR1 [2] is 95%.
On the same counts, the results for `CC(C)(C)c1ccc(CCC(=O)Nc2ccc(-c3ccc(CO)cc3)nc2)cc1` [Cpd 135] are 31.2 nM, 90% and 79%.
